Source: patent US8309583B2, “Desferrioxamine conjugates, derivatives and analogues” (priority 2007, dated 2012)
Structures can show the parent of a compound that is named as a salt. Values belong to the molecule of their own block, whether it stands above or below them.

Experiments:
SK-N-MC cells = experiment: 59Fe uptake into SK-N-MC cells from 59Fe-loaded transferrin; type: cell-based; conditions: comparison with DFOB
[1] = tested on: SK-N-MC neuroepithelioma cells; experiment: 59Fe efflux from 59Fe-prelabeled SK-N-MC cells; type: cell-based; conditions: compound 50 μM, 3 h, 37° C.; SK-N-MC cells prelabeled 3 h with 59Fe-loaded transferrin (0.75 μM)
[2] = oral; cited from earlier work
[3] = RP-HPLC relative hydrophobicity / logP correlation; conditions: C18 column, H2O/ACN 0.1% TFA gradient, free or Fe(III)-loaded ligand
[4] = standards used in RP-HPLC logP correlation; cited from earlier work

Compound: CC(=O)N(O)CCCCCNC(=O)CCC(=O)N(O)CCCCCNC(=O)CCC(=O)N(O)CCCCCNC(=O)COc1ccc(C)cc1 [4-methylphenoxyacetate-DFOB, 4-methylphenoxyacetate-desferrioxamine B]
competition with 59Fe-loaded transferrin for 59Fe, preventing accumulation of Fe within the cell (SK-N-MC cells): more efficient
Fe efflux (59Fe released from prelabeled cells) [1]: 31.6%

Compound: CC(=O)N(O)CCCCCNC(=O)CCC(=O)N(O)CCCCCNC(=O)CCC(=O)N(O)CCCCCNC(=O)CCCC[C@@H]1SC[C@@H]2NC(=O)N[C@@H]21 [Biotin-DFOB, biotin-desferrioxamine B]
Fe efflux (59Fe released from prelabeled cells) [1]: 6.6%

Compound: CC(=O)N(O)CCCCCNC(=O)CCC(=O)N(O)CCCCCNC(=O)CCC(=O)N(O)CCCCCN [DFOB, desferrioxamine B, reference compound]
Fe efflux (59Fe released from prelabeled cells) [1]: 10.8%

Compound: CC(=O)N(O)CCCCCNC(=O)CCC(=O)N(O)CCCCCNC(=O)CCC(=O)N(O)CCCCCN [Desferal, mesylate salt of desferrioxamine B]
fraction of an orally administered dose absorbed [2]: 15%

relative hydrophobicity / water solubility from RP-HPLC retention [3]: least water soluble
relative hydrophobicity / water solubility from RP-HPLC retention ([3]; listed as adamantane-desferrioxamine B): significantly more hydrophobic
Compound: CC(=O)N(O)CCCCCNC(=O)CCC(=O)N(O)CCCCCNC(=O)CCC(=O)N(O)CCCCCNC(=O)C12CC3CC(CC(C3)C1)C2 [adamantane-DFOB, adamantane-desferrioxamine B]
competition with 59Fe-loaded transferrin for 59Fe, preventing accumulation of Fe within the cell (SK-N-MC cells): more efficient
Fe efflux (59Fe released from prelabeled cells) [1]: 28%

Compound: CC(=O)N(O)CCCCCNC(=O)CCC(=O)N(O)CCCCCNC(=O)CCC(=O)N(O)CCCCCNC(=O)c1ccc2c(c1)OCCOCCOCCOCCO2 [benzo-15-crown-5-4-carboxylate-DFOB, benzo-15-crown-5-4-carboxylate-desferrioxamine B]
Fe efflux (59Fe released from prelabeled cells) [1]: 9.6%

Compound: Oc1cccc2ccccc12 [α-naphthol]
logP [4]: 2.7
